Laboratory results taken from US20230111310A1, “CARBOXYLIC ACID DERIVATIVE-SUBSTITUTED IMINO ARYL COMPOUND, PREPARATION METHOD THEREFOR, HERBICIDAL COMPOSITION AND USE THEREOF” (Qingdao Kingagroot Chemical Compound Co., Ltd., priority 2020, published 2023).

How the values were obtained:
Experiment in all cases: Weeding effect in post-emergence stage
Assay type in all cases: in vivo
Conditions in all cases: level of fresh weight growth control rate
Abutilon theophrasti = test system: Abutilon theophrasti
Summary of the method: (§1)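 Weeds were treated post-emergence at 2-3 leaves with compound doses from 7.5 up to 500 g/ha, formulated in acetone–Tween 80 with methyl oleate synergist. Efficacy was assessed as growth control after 3 weeks.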

Alopecurus japonicus = test system: Alopecurus japonicus
Summary of the method: as §1

Digitaria sanguinalis = test system: Digitaria sanguinalis
Summary of the method: as §1

Eleusine indica = test system: Eleusine indica
Summary of the method: as §1

Setaria viridis = test system: Setaria viridis
Summary of the method: as §1

Echinochloa crusgalli = test system: Echinochloa crusgalli
Summary of the method: as §1

Structure (SMILES)	Weeding effect in post-emergence stage, Abutilon theophrasti (Abutilon theophrasti; Dose 30 g/ha)	Weeding effect in post-emergence stage, Alopecurus japonicus (Alopecurus japonicus; Dose 30 g/ha)	Weeding effect in post-emergence stage, Digitaria sanguinalis (Digitaria sanguinalis; Dose 30 g/ha)	Weeding effect in post-emergence stage, Eleusine indica (Eleusine indica; Dose 30 g/ha)	Weeding effect in post-emergence stage, Setaria viridis (Setaria viridis; Dose 30 g/ha)	Weeding effect in post-emergence stage, Echinochloa crusgalli (Echinochloa crusgalli; Dose 30 g/ha)	Weeding effect in post-emergence stage, Abutilon theophrasti (Abutilon theophrasti; Dose 15 g/ha)	Weeding effect in post-emergence stage, Alopecurus japonicus (Alopecurus japonicus; Dose 15 g/ha)	Weeding effect in post-emergence stage, Digitaria sanguinalis (Digitaria sanguinalis; Dose 15 g/ha)	Weeding effect in post-emergence stage, Eleusine indica (Eleusine indica; Dose 15 g/ha)	Weeding effect in post-emergence stage, Setaria viridis (Setaria viridis; Dose 15 g/ha)	Weeding effect in post-emergence stage, Echinochloa crusgalli (Echinochloa crusgalli; Dose 15 g/ha)	other results
COC(=O)CCOC(=O)[C@@H](C)O/N=C/c1cc(-n2c(=O)cc(C(F)(F)F)n(C)c2=O)c(F)cc1Cl [240(R)]	5 (Level 5: growth control rate is above 85%)	5 (Level 5: growth control rate is above 85%)	5 (Level 5: growth control rate is above 85%)	5 (Level 5: growth control rate is above 85%)	5 (Level 5: growth control rate is above 85%)	5 (Level 5: growth control rate is above 85%)							
COC(=O)C(C)OC(=O)[C@@H](C)O/N=C/c1cc(-n2c(=O)cc(C(F)(F)F)n(C)c2=O)c(F)cc1Cl (stereo partly drawn) [241(R)]	5 (Level 5: growth control rate is above 85%)	5 (Level 5: growth control rate is above 85%)	5 (Level 5: growth control rate is above 85%)	5 (Level 5: growth control rate is above 85%)	5 (Level 5: growth control rate is above 85%)	5 (Level 5: growth control rate is above 85%)							
COC(=O)C(C)(C)OC(=O)[C@@H](C)O/N=C/c1cc(-n2c(=O)cc(C(F)(F)F)n(C)c2=O)c(F)cc1Cl [243(R)]							5 (Level 5: growth control rate is above 85%)	5 (Level 5: growth control rate is above 85%)	5 (Level 5: growth control rate is above 85%)	5 (Level 5: growth control rate is above 85%)	5 (Level 5: growth control rate is above 85%)	5 (Level 5: growth control rate is above 85%)	
COC(=O)C(OC)OC(=O)[C@@H](C)O/N=C/c1cc(-n2c(=O)cc(C(F)(F)F)n(C)c2=O)c(F)cc1Cl (stereo partly drawn) [245(R)]	5 (Level 5: growth control rate is above 85%)	5 (Level 5: growth control rate is above 85%)	5 (Level 5: growth control rate is above 85%)	5 (Level 5: growth control rate is above 85%)	5 (Level 5: growth control rate is above 85%)	5 (Level 5: growth control rate is above 85%)							
C/C(=N\OC(=O)[C@@H](C)O/N=C/c1cc(-n2c(=O)cc(C(F)(F)F)n(C)c2=O)c(F)cc1Cl)C(C)C [250(R)]							5 (Level 5: growth control rate is above 85%)	5 (Level 5: growth control rate is above 85%)	5 (Level 5: growth control rate is above 85%)	5 (Level 5: growth control rate is above 85%)	5 (Level 5: growth control rate is above 85%)	5 (Level 5: growth control rate is above 85%)	
CCC(CC)=NOC(=O)[C@@H](C)O/N=C/c1cc(-n2c(=O)cc(C(F)(F)F)n(C)c2=O)c(F)cc1Cl [251(R)]							5 (Level 5: growth control rate is above 85%)	5 (Level 5: growth control rate is above 85%)	5 (Level 5: growth control rate is above 85%)	5 (Level 5: growth control rate is above 85%)	5 (Level 5: growth control rate is above 85%)	5 (Level 5: growth control rate is above 85%)	
CCO/C(C)=N/OC(=O)[C@@H](C)O/N=C/c1cc(-n2c(=O)cc(C(F)(F)F)n(C)c2=O)c(F)cc1Cl [252(R)]							5 (Level 5: growth control rate is above 85%)	5 (Level 5: growth control rate is above 85%)	5 (Level 5: growth control rate is above 85%)	5 (Level 5: growth control rate is above 85%)	5 (Level 5: growth control rate is above 85%)	5 (Level 5: growth control rate is above 85%)	
CCOC(=O)C(C)=NOC(=O)C(C)ON=Cc1cc(-n2c(=O)cc(C(F)(F)F)n(C)c2=O)c(F)cc1Cl [254(R)]							5 (Level 5: growth control rate is above 85%)	5 (Level 5: growth control rate is above 85%)	5 (Level 5: growth control rate is above 85%)	5 (Level 5: growth control rate is above 85%)	5 (Level 5: growth control rate is above 85%)	5 (Level 5: growth control rate is above 85%)	
C[C@@H](O/N=C/c1cc(-n2c(=O)cc(C(F)(F)F)n(C)c2=O)c(F)cc1Cl)C(=O)O/N=C/c1ccccc1 [255(R)]	5 (Level 5: growth control rate is above 85%)	5 (Level 5: growth control rate is above 85%)	5 (Level 5: growth control rate is above 85%)	5 (Level 5: growth control rate is above 85%)	5 (Level 5: growth control rate is above 85%)	5 (Level 5: growth control rate is above 85%)							
CC(C)=NOCCOC(=O)[C@@H](C)O/N=C/c1cc(-n2c(=O)cc(C(F)(F)F)n(C)c2=O)c(F)cc1Cl [259(R)]	5 (Level 5: growth control rate is above 85%)	5 (Level 5: growth control rate is above 85%)	5 (Level 5: growth control rate is above 85%)	5 (Level 5: growth control rate is above 85%)	5 (Level 5: growth control rate is above 85%)	5 (Level 5: growth control rate is above 85%)							
C[C@@H](O/N=C/c1cc(-n2c(=O)cc(C(F)(F)F)n(C)c2=O)c(F)cc1Cl)C(=O)Oc1ccccc1 [262(R)]							5 (Level 5: growth control rate is above 85%)	5 (Level 5: growth control rate is above 85%)	5 (Level 5: growth control rate is above 85%)	5 (Level 5: growth control rate is above 85%)	5 (Level 5: growth control rate is above 85%)	5 (Level 5: growth control rate is above 85%)	
C[C@@H](O/N=C/c1cc(-n2c(=O)cc(C(F)(F)F)n(C)c2=O)c(F)cc1Cl)C(=O)ON1C(=O)CCC1=O [263(R)]													Weeding effect in post-emergence stage, Abutilon theophrasti (Abutilon theophrasti; Dose 60 g/ha): 5 (Level 5: growth control rate is above 85%); Weeding effect in post-emergence stage, Alopecurus japonicus (Alopecurus japonicus; Dose 60 g/ha): 5 (Level 5: growth control rate is above 85%); Weeding effect in post-emergence stage, Digitaria sanguinalis (Digitaria sanguinalis; Dose 60 g/ha): 5 (Level 5: growth control rate is above 85%); Weeding effect in post-emergence stage, Eleusine indica (Eleusine indica; Dose 60 g/ha): 5 (Level 5: growth control rate is above 85%); Weeding effect in post-emergence stage, Setaria viridis (Setaria viridis; Dose 60 g/ha): 5 (Level 5: growth control rate is above 85%); Weeding effect in post-emergence stage, Echinochloa crusgalli (Echinochloa crusgalli; Dose 60 g/ha): 5 (Level 5: growth control rate is above 85%)
C[C@@H](O/N=C/c1cc(-n2c(=O)cc(C(F)(F)F)n(C)c2=O)c(F)cc1Cl)C(=O)OCC1OCCO1 [266(R)]	5 (Level 5: growth control rate is above 85%)	5 (Level 5: growth control rate is above 85%)	5 (Level 5: growth control rate is above 85%)	5 (Level 5: growth control rate is above 85%)	5 (Level 5: growth control rate is above 85%)	5 (Level 5: growth control rate is above 85%)							
